In patent US12202835B2, “Substituted aromatic ring-linked dioxinoquinazolines and dioxinoquinolines as kinase inhibitors” (BEIJING SCITECH-MQ PHARMACEUTICALS LIMITED, priority 2018, dated 2025):

Legend:
c-MET kinase = c-MET kinase (Homo sapiens (Human), UniProt P08581); assay: Assay of small molecular compounds for inhibiting the activity of c-MET kinase (LANCE TR-FRET); assay type: biochemical; details: read-out: CMET IC50
Outline: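 LANCE TR-FRET assay with c-MET at 1 nM final after a 5 min room-temperature preincubation with compound (11-point, 3-fold series, 2500–0.042 nM final, 4% DMSO). ULight-JAK-1 (Tyr1023) peptide (100 nM final) and ATP (10 μM final) reacted 60 min in the dark. Inhibition was taken relative to controls, then IC50 fitted.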

MER kinase = MER kinase (Homo sapiens (Human), UniProt Q12866); assay: Assay of small molecular compounds for inhibiting the activity of MER kinase (LANCE TR-FRET); assay type: biochemical
Chain of MER kinase (Q12866 21-999): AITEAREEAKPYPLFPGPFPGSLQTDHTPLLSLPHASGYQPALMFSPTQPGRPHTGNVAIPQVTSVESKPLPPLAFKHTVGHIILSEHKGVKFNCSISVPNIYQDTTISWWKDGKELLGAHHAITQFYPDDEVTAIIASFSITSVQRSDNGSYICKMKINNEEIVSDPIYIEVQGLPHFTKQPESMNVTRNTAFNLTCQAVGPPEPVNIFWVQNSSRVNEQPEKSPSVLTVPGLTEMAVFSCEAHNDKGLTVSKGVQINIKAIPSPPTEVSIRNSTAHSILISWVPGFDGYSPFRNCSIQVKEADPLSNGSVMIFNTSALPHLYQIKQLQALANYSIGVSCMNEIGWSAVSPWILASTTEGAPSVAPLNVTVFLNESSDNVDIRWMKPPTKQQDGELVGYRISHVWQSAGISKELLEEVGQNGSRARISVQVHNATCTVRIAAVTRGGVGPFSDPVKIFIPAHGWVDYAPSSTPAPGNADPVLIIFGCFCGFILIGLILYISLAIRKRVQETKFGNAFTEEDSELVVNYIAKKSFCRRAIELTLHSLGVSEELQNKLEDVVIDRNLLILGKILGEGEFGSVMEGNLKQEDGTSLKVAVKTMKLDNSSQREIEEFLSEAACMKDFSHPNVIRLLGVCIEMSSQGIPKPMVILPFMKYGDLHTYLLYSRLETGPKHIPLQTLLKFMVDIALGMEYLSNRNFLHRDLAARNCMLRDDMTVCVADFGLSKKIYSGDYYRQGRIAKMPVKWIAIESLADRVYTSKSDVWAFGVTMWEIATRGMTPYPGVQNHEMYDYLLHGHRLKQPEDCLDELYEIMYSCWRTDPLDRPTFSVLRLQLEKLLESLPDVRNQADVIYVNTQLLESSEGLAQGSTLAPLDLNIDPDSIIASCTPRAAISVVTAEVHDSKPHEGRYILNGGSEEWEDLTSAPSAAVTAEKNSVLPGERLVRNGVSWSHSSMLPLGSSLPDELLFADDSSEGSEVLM
Outline: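 MER kinase preincubated 5 min at RT with compound (11 points, 0.042-2500 nM final), then ULight-poly GT and ATP added (4× stocks 200 nM and 20 μM) for 60 min at RT, 1% DMSO. Phosphorylation detected by LANCE TR-FRET; IC50 from % inhibition versus controls.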

Chain of c-MET kinase (P08581 25-1390): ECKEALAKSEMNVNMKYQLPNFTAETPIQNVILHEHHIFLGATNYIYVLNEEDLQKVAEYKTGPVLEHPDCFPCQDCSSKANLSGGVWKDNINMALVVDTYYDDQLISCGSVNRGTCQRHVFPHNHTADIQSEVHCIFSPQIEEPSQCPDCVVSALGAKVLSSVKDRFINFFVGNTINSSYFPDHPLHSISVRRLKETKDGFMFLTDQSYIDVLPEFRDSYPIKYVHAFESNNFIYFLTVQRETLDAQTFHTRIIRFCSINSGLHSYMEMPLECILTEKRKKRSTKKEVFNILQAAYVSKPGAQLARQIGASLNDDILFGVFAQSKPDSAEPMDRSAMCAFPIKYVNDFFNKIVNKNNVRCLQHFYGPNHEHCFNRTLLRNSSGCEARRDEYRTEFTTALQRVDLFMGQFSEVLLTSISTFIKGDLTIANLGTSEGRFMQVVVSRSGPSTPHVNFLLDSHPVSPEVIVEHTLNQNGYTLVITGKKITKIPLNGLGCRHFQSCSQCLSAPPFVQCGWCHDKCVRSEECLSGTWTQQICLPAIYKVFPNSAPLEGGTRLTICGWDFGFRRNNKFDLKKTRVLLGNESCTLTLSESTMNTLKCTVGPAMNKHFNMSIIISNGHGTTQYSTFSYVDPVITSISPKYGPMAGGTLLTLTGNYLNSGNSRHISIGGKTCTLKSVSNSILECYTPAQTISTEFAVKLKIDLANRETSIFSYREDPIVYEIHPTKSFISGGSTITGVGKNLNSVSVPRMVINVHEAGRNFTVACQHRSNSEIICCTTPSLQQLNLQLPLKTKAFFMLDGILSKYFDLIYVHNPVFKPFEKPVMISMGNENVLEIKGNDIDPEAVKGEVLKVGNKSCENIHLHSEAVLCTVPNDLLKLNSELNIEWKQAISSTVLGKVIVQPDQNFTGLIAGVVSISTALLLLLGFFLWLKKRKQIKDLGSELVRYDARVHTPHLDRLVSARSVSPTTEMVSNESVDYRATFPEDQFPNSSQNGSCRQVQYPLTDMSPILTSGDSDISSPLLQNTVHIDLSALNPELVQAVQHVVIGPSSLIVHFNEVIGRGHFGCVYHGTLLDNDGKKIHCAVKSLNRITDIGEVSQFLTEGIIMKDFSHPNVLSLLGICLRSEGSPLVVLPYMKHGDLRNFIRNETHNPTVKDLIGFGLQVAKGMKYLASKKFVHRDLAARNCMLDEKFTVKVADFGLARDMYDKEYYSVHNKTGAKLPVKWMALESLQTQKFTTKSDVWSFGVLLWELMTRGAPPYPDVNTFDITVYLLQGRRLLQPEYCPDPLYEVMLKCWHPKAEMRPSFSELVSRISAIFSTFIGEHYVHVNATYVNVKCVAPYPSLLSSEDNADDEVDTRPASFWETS

| SMILES | IC50 (c-MET kinase) | IC50 (MER kinase) |
| --- | --- | --- |
| CN1CCN(CCCOc2cc3nccc(Oc4ccc(NC(=O)c5cn(C)c(=O)n(-c6ccc(F)cc6)c5=O)cc4F)c3c3c2OCCO3)CC1 [Example 74, N-(3-fluoro-4-((5-(3-(4-methylpiperazin-1-yl)propoxy)-2,3-dihydro-[1,4]dioxino[2,3-f]quinolin-10-yl)oxy)phenyl)-3-(4-fluorophenyl)-1-methyl-2,4-dioxo-1,2,3,4-tetrahydropyrimidine-5-carboxamide] | ≤ 50 nM | ≤ 50 nM |
| CCOc1ccn(-c2ccc(F)cc2)c(=O)c1C(=O)Nc1ccc(Oc2ccnc3cc(OCCCN4CCC(C)(N)CC4)c4c(c23)OCCO4)c(F)c1 [Example 68, N-(4-((5-(3-(4-amino-4-methylpiperidin-1-yl)propoxy)-2,3-dihydro-[1,4]dioxino[2,3-f]quinolin-10-yl)oxy)-3-fluorophenyl)-4-ethoxy-1-(4-fluorophenyl)-2-oxo-1,2-dihydropyridine-3-carboxamide] | ≤ 50 nM | ≤ 50 nM |
| CCOc1ccn(-c2ccc(F)cc2)c(=O)c1C(=O)Nc1ccc(Oc2ccnc3cc(OC4COC4)c4c(c23)OCCO4)c(F)c1 [Example 64, N-(4-((5-((oxetan-3-yl)oxy)-2,3-dihydro-[1,4]dioxino[2,3-f]quinolin-10-yl)oxy)-3-fluorophenyl)-4-ethoxy-1-(4-fluorophenyl)-2-oxo-1,2-dihydropyridine-3-carboxamide] | ≤ 50 nM | ≤ 50 nM |
| Cn1cc(C(=O)Nc2ccc(Oc3ccnc4cc(OC5CCOC5)c5c(c34)OCCO5)c(F)c2)c(=O)n(-c2ccc(F)cc2)c1=O (centres unmarked) [Example 90, N-(3-fluoro-4-((5-((tetrahydrofuran-3-yl)oxy)-2,3-dihydro-[1,4]dioxino[2,3-f]quinolin-10-yl)oxy)phenyl)-3-(4-fluorophenyl)-1-methyl-2,4-dioxo-1,2,3,4-tetrahydropyrimidine-5-carboxamide] | ≤ 50 nM | ≤ 50 nM |
| COc1cn(-c2ccc(F)cc2C)nc1C(=O)Nc1ccc(Oc2ncnc3cc(OCCCN4CCOCC4)c4c(c23)OCCO4)c(F)c1 [Example 11, 1-(4-fluoro-2-methylphenyl)-N-(3-fluoro-4-((5-(3-morpholinopropoxy)-2,3-dihydro-[1,4]dioxino[2,3-f]quinazolin-10-yl)oxy)phenyl)-4-methoxy-1H-pyrazole-3-carboxamide] | ≤ 50 nM | 50 to 500 nM |
| CCOc1ccn(-c2ccc(F)cc2)c(=O)c1C(=O)Nc1ccc(Oc2ncnc3cc(OC)c4c(c23)OCCO4)c(F)c1 [Example 3, N-(3-fluoro-4-((5-methoxy-2,3-dihydro-[1,4]dioxino[2,3-f]quinazolin-10-yl)oxy)phenyl)-1-(4-fluorophenyl)-4-ethoxy-2-oxo-1,2-dihydropyridine-3-carboxamide] | ≤ 50 nM | ≤ 50 nM |
| COCCOc1cc2nccc(Oc3ccc(NC(=O)c4cn(C(C)C)c(=O)n(-c5ccc(F)cc5)c4=O)cc3F)c2c2c1OCCO2 [Example 43, N-(3-fluoro-4-((5-(2-methoxyethoxy)-2,3-dihydro-[1,4]dioxino[2,3-f]quinolin-10-yl)oxy)phenyl)-3-(4-fluorophenyl)-1-isopropyl-2,4-dioxo-1,2,3,4-tetrahydropyrimidine-5-carboxamide] | ≤ 50 nM | ≤ 50 nM |
| CCOc1ccn(-c2ccc(F)cc2)c(=O)c1C(=O)Nc1ccc(Oc2ccnc3cc(OCCCN(C)C4CCC4)c4c(c23)OCCO4)c(F)c1 [Example 71, N-(4-((5-(3-(cyclobutyl(methyl)amino)propoxy)-2,3-dihydro-[1,4]dioxino[2,3-f]quinolin-10-yl)oxy)-3-fluorophenyl)-4-ethoxy-1-(4-fluorophenyl)-2-oxo-1,2-dihydropyridine-3-carboxamide] | ≤ 50 nM | ≤ 50 nM |
| CCOc1ccn(-c2ccc(F)cc2)c(=O)c1C(=O)Nc1ccc(Oc2ccnc3cc(OC4CCOC4)c4c(c23)OCCO4)c(F)c1 (centres unmarked) [Example 65, N-(4-((5-((tetrahydrofuran-3-yl)oxy)-2,3-dihydro-[1,4]dioxino[2,3-f]quinolin-10-yl)oxy)-3-fluorophenyl)-4-ethoxy-1-(4-fluorophenyl)-2-oxo-1,2-dihydropyridine-3-carboxamide] | ≤ 50 nM | ≤ 50 nM |
| CC(C)n1cc(C(=O)Nc2ccc(Oc3ccnc4cc(OCCO)c5c(c34)OCCO5)c(F)c2)c(=O)n(-c2ccc(F)cc2)c1=O [Example 78, N-(3-fluoro-4-((5-(2-hydroxyethoxy)-2,3-dihydro-[1,4]dioxino[2,3-f]quinolin-10-yl)oxy)phenyl)-3-(4-fluorophenyl)-1-isopropyl-2,4-dioxo-1,2,3,4-tetrahydropyrimidine-5-carboxamide] | ≤ 50 nM | ≤ 50 nM |
| COc1cc2nccc(Oc3ccc(NC(=O)c4cn(CCO)c(=O)n(-c5ccc(F)cc5)c4=O)cc3F)c2c2c1OCCO2 [Example 45, N-(3-fluoro-4-((5-methoxy-2,3-dihydro-[1,4]dioxino[2,3-f]quinolin-10-yl)oxy)phenyl)-3-(4-fluorophenyl)-1-(2-hydroxyethyl)-2,4-dioxo-1,2,3,4-tetrahydropyrimidine-5-carboxamide] | ≤ 50 nM | ≤ 50 nM |
| CCOc1ccn(-c2ccc(F)cc2)c(=O)c1C(=O)Nc1ccc(Oc2ccnc3cc(OCCCN4CCC(C)(O)CC4)c4c(c23)OCCO4)c(F)c1 [Example 69, N-(4-((5-(3-(4-hydroxy-4-methylpiperidin-1-yl)propoxy)-2,3-dihydro-[1,4]dioxino[2,3-f]quinolin-10-yl)oxy)-3-fluorophenyl)-4-ethoxy-1-(4-fluorophenyl)-2-oxo-1,2-dihydropyridine-3-carboxamide] | ≤ 50 nM | ≤ 50 nM |
| COc1cc2ncnc(Oc3ccc(NC(=O)c4cccn(-c5ccc(F)cc5)c4=O)cc3F)c2c2c1OCCO2 [Example 1, N-(3-fluoro-4-((5-methoxy-2,3-dihydro-[1,4]dioxino[2,3-f]quinazolin-10-yl)oxy)phenyl)-1-(4-fluorophenyl)-2-oxo-1,2-dihydropyridine-3-carboxamide] | ≤ 50 nM | ≤ 50 nM |
| CCOc1ccn(-c2ccc(F)cc2)c(=O)c1C(=O)Nc1ccc(Oc2ccnc3cc(OC(C)C)c4c(c23)OCCO4)c(F)c1 [Example 63, N-(4-((5-isopropoxy-2,3-dihydro-[1,4]dioxino[2,3-f]quinolin-10-yl)oxy)-3-fluorophenyl)-4-ethoxy-1-(4-fluorophenyl)-2-oxo-1,2-dihydropyridine-3-carboxamide] | ≤ 50 nM | ≤ 50 nM |
| CCOc1ccn(-c2ccc(F)cc2)c(=O)c1C(=O)Nc1ccc(Oc2ccnc3cc(OCCCN4CCCC4)c4c(c23)OCCO4)c(F)c1 [Example 52, N-(4-((5-(3-(pyrrolidin-1-yl)propoxy)-2,3-dihydro-[1,4]dioxino[2,3-f]quinolin-10-yl)oxy)-3-fluorophenyl)-4-ethoxy-1-(4-fluorophenyl)-2-oxo-1,2-dihydropyridine-3-carboxamide] | ≤ 50 nM | ≤ 50 nM |
| CCOc1ccn(-c2ccc(F)cc2)c(=O)c1C(=O)Nc1ccc(Oc2ccnc3cc(OCCCN4CCOCC4)c4c(c23)OCCO4)cc1Cl [Example 73, N-(2-chloro-4-((5-(3-morpholinopropoxy)-2,3-dihydro-[1,4]dioxino[2,3-f]quinolin-10-yl)oxy)phenyl)-4-ethoxy-1-(4-fluorophenyl)-2-oxo-1,2-dihydropyridine-3-carboxamide] | ≤ 50 nM | ≤ 50 nM |
